From patent publication US20250340529A1, “Heterocyclic Compounds as Immunomodulators of PD-L1 Interactions” (Ascletis BioScience Co., Ltd, priority 2021, published 2025)

These compounds were tested against PD-1/PD-L1 (Homo sapiens (Human), UniProt Q9NZQ7) (assay: PD-1/PD-L1 Homogeneous Time-Resolved Fluorescence (HTRF) binding assay). Details: 3 nM PD1, 10 nM PD-L1, 25° C., PBS pH 7.4.
Procedure: PD-1/PD-L1 Homogeneous Time-Resolved Fluorescence (HTRF) Binding Assay
The assays were conducted in a standard black 384-well polystyrene plate with a final volume of 20 μL. Inhibitors were first serially diluted in DMSO and then added to the plate wells before the addition of other reaction components. The final concentration of DMSO in the assay was 1%. The assays were carried out at 25° C. in the PBS buffer (pH 7.4) with 0.05% Tween-20 and 0.1% BSA. Recombinant human PD-L1 protein (19-238) with a Histag at the C-terminus was purchased from AcroBiosystems (PD1-H5229). Recombinant human PD-1 protein (25-167) with Fe tag at the C-terminus was also purchased from AcroBiosystems (PD1-H5257). PD-L1 and PD-1 proteins were diluted in the assay buffer and 10 μL was added to the plate well. Plates were centrifuged and proteins were preincubated with inhibitors for 40 minutes. The incubation was followed by the addition of 10 μL of HTRF detection buffer supplemented with Europium cryptate-labeled anti-human IgG (PerkinElmer-AD0212) specific for Fe and anti-His antibody conjugated to SureLight®-Allophycocyanin (APC, PerkinElmer-AD0059H). After centrifugation, the plate was incubated at 25° C. for 60 min. before reading on a PHERAstar FS plate reader (665 nm/620 nm ratio). Final concentrations in the assay were—3 nM PD1, 10 nM PD-L1, 1 nM europium anti-human IgG and 20 nM anti-His-Allophycocyanin. IC50 determination was performed by fitting the curve of percent control activity versus the log of the inhibitor concentration.

PD-1/PD-L1, sequence (Q9NZQ7 19-238): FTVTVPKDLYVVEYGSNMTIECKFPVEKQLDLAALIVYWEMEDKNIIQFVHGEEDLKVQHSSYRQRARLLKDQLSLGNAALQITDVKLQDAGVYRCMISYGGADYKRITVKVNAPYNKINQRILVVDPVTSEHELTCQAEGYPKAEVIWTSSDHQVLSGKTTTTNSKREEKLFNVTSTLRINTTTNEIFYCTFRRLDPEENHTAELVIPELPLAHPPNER

Compared with `O=C1CC[C@@H](CN2C(=O)CCc3cc(-c4cccc(-c5cccc(-c6ccc7c(c6)CCC(=O)N7C[C@@H]6CCC(=O)N6)c5Cl)c4Cl)ccc32)N1` [Compound 281, 6,6′-(2,2′-dichloro-[1,1′-biphenyl]-3,3′-diyl)bis(1-(((S)-5-oxopyrrolidin-2-yl)methyl)-3,4-dihydroquinolin-2(1H)-one)], `O=C1CC[C@H](CN2C(=O)COc3cc(-c4cccc(-c5cccc(-c6ccc7c(c6)OCC(=O)N7C[C@H]6CCC(=O)N6)c5Cl)c4Cl)ccc32)N1` [Compound 448] is 4.9-fold lower in IC50: 26.7 nM for the first, 5.45 nM for the second.

Compared with `O=C1CC[C@@H](CN2CCCc3cc(-c4cccc(-c5cccc(-c6ccc7c(c6)CCCN7C[C@@H]6CCC(=O)N6)c5Cl)c4Cl)ccc32)N1` [Compound 303], `CC1(C)Oc2cc(-c3cccc(-c4cccc(-c5ccc6c(c5)OC(C)(C)C(=O)N6C[C@@H]5CCC(=O)N5)c4Cl)c3Cl)ccc2N(C[C@@H]2CCC(=O)N2)C1=O` [Compound 372] is higher in IC50: 187 nM for the first, no less than 3000 nM for the second.

First: Nc1cc2c(cc1-c1cccc(-c3cccc(-c4cc5c(cc4N)N(C[C@@H]4CCC(=O)N4)C(=O)CO5)c3Cl)c1Cl)OCC(=O)N2C[C@@H]1CCC(=O)N1 [Compound 354]
Second: O=C1CC[C@@H](CN2C(=O)COc3cc(-c4cccc(-c5cccc(-c6cc(Cl)c7c(c6)OCC(=O)N7C[C@@H]6CCC(=O)N6)c5Cl)c4Cl)cc(Cl)c32)N1 [Compound 376]
The IC50 of the first is 11-fold higher: 2180 nM for the first, 200 nM for the second.

Going from `O=C1CC[C@@H](Cn2c(=O)cnc3cc(-c4cccc(-c5cccc(-c6ccc7c(c6)ncc(=O)n7C[C@@H]6CCC(=O)N6)c5Cl)c4Cl)ccc32)N1` [Compound 361] to `O=C1CC[C@@H](CN2C(=O)COc3cc(-c4cccc(-c5cccc(-c6cnc7c(c6)OCC(=O)N7C[C@@H]6CCC(=O)N6)c5Cl)c4Cl)cnc32)N1` [Compound 401], the IC50 rises from 1.75 nM to 9.78 nM (5.6-fold). The first is the more potent here.

Going from `O=C1COc2cc(-c3cccc(-c4cccc(-c5ccc6c(c5)OCC(=O)N6CCn5cncn5)c4Cl)c3Cl)ccc2N1CCn1cncn1` [Compound 374] to `O=C1COc2cc(-c3cccc(-c4cccc(-c5ccc6c(c5)OCC(=O)N6CCn5cccn5)c4Cl)c3Cl)ccc2N1CCn1cccn1` [Compound 375], the IC50 rises from 68.2 nM to 2710 nM (40-fold). The first is the more potent here.

First: O=C1COc2cc(-c3cccc(-c4cccc(-c5ccc6c(c5)OCC(=O)N6CCO)c4Cl)c3Cl)ccc2N1CCO [Compound 378]
Second: CN(CCO)CCN1C(=O)COc2cc(-c3cccc(-c4cccc(-c5ccc6c(c5)OCC(=O)N6CCN(C)CCO)c4Cl)c3Cl)ccc21 [Compound 471]
The IC50 of the first is 15-fold higher: 69.7 nM for the first, 4.7 nM for the second. The second is the more potent here.

Compared with `CC1(C)Cc2cc(-c3cccc(-c4cccc(-c5cnc6c(c5)OC(C)(C)C(=O)N6C[C@@H]5CCC(=O)N5)c4Cl)c3Cl)cnc2N(C[C@@H]2CCC(=O)N2)C1=O` [Compound 382], `O=C1CC[C@@H](CN2C(=O)COc3nc(-c4cccc(-c5cccc(-c6cnc7c(n6)OCC(=O)N7C[C@@H]6CCC(=O)N6)c5Cl)c4Cl)cnc32)N1` [Compound 466] is lower in IC50: no less than 3000 nM for the first, 5 nM for the second.

First: O=C1NCCN1CCN1C(=O)COc2cc(-c3cccc(-c4cccc(-c5ccc6c(c5)OCC(=O)N6CCN5CCNC5=O)c4Cl)c3Cl)ccc21 [Compound 384]
Second: O=C1CCCN1CCN1C(=O)COc2cc(-c3cccc(-c4cccc(-c5ccc6c(c5)OCC(=O)N6CCN5CCCC5=O)c4Cl)c3Cl)ccc21 [Compound 394]
The IC50 of the first is 1.8-fold lower: 260 nM for the first, 471 nM for the second.

Compared with `O=C1COc2cc(-c3cccc(-c4cccc(-c5ccc6c(c5)OCC(=O)N6CCN5CCNC5=O)c4Cl)c3Cl)ccc2N1` [Compound 385], `O=C1COc2cc(-c3cccc(-c4cccc(-c5ccc6c(c5)OCC(=O)N6C[C@@H]5CCC(=O)N5)c4Cl)c3Cl)ccc2N1` [Compound 429, (S)-7-(2,2′-dichloro-3′-(3-oxo-3,4-dihydro-2H-benzo[b][1,4]oxazin-7-yl)-[1,1′-biphenyl]-3-yl)-4-((5-oxopyrrolidin-2-yl)methyl)-2H-benzo[b][1,4]oxazin-3(4H)-one] is 13-fold lower in IC50: 264 nM for the first, 20.8 nM for the second. The second is the more potent here.

First: O=C1CC[C@@H](CN2C(=O)COc3cc(-c4cccc(-c5cccc(-c6cc(F)c7c(c6)OCC(=O)N7C[C@@H]6CCC(=O)N6)c5Cl)c4Cl)cc(F)c32)N1 [Compound 396]
Second: O=C1CC(CN2C(=O)COc3cc(-c4cccc(-c5cccc(-c6ccc7c(c6)OCC(=O)N7C[C@@H]6CCC(=O)N6)c5Cl)c4Cl)ccc32)CN1 (stereo partly shown) [Compound 450]
The IC50 of the first is 1.8-fold higher: 11.7 nM for the first, 6.47 nM for the second. The second is the more potent here.

Compared with `N#CCN1C(=O)COc2cc(-c3cccc(-c4cccc(-c5ccc6c(c5)OCC(=O)N6CC#N)c4Cl)c3Cl)ccc21` [Compound 397, 2,2′-((2,2′-dichloro-[1,1′-biphenyl]-3,3′-diyl)bis(3-oxo-2,3-dihydro-4H-benzo[b][1,4]oxazine-7,4-diyl))diacetonitrile], `O=C1COc2cc(-c3cccc(-c4cccc(-c5ccc6c(c5)OCC(=O)N6Cc5ncc[nH]5)c4Cl)c3Cl)ccc2N1Cc1ncc[nH]1` [Compound 415] is 2.9-fold lower in IC50: 305 nM for the first, 104 nM for the second.

First: CC(=O)N1CCC(N2C(=O)COc3cc(-c4cccc(-c5cccc(-c6ccc7c(c6)OCC(=O)N7C6CCN(C(C)=O)CC6)c5Cl)c4Cl)ccc32)CC1 [Compound 408]
Second: O=C(O)C1CCN(CCN2C(=O)COc3cc(-c4cccc(-c5cccc(-c6ccc7c(c6)OCC(=O)N7CCN6CCC(C(=O)O)C6)c5Cl)c4Cl)ccc32)C1 (stereo not shown) [Compound 469]
The IC50 of the first is 140-fold higher: 571 nM for the first, 4.02 nM for the second. The second is the more potent here.

First: O=C1COc2cc(-c3cccc(-c4cccc(-c5ccc6c(c5)OCC(=O)N6Cc5nn[nH]n5)c4Cl)c3Cl)ccc2N1Cc1nn[nH]n1 [Compound 412]
Second: CC(=O)NCCNCCN1C(=O)COc2cc(-c3cccc(-c4cccc(-c5ccc6c(c5)OCC(=O)N6C[C@@H]5CCC(=O)N5)c4Cl)c3Cl)ccc21 [Compound 489]
The IC50 of the first is higher: no less than 3000 nM for the first, 6.31 nM for the second.

Compared with `O=C1N[C@@H](CN2C(=O)COc3cc(-c4cccc(-c5cccc(-c6ccc7c(c6)OCC(=O)N7C[C@H]6COC(=O)N6)c5Cl)c4Cl)ccc32)CO1` [Compound 413], `O=C1CC[C@@H](CN2C(=O)COc3cc(-c4cccc(-c5cccc(-c6ccc7c(c6)OCC(=O)N7CCN6CC[C@H](O)C6)c5Cl)c4Cl)ccc32)N1` [Compound 492] is 2.2-fold lower in IC50: 7.05 nM for the first, 3.15 nM for the second.

Compared with `COC(=O)N[C@H](C(=O)N1CCC[C@H]1CN1C(=O)COc2cc(-c3cccc(-c4cccc(-c5ccc6c(c5)OCC(=O)N6C[C@@H]5CCCN5C(=O)[C@@H](NC(=O)OC)C(C)C)c4Cl)c3Cl)ccc21)C(C)C` [Compound 422], `CC(C)[C@H](N)C(=O)N1CCC[C@H]1CN1C(=O)COc2cc(-c3cccc(-c4cccc(-c5ccc6c(c5)OCC(=O)N6C[C@@H]5CCCN5C(=O)[C@@H](N)C(C)C)c4Cl)c3Cl)ccc21` [Compound 459] is lower in IC50: no less than 3000 nM for the first, 436 nM for the second. The second is the more potent here.

Going from `N#Cc1cncc(CCN2C(=O)COc3cc(-c4cccc(-c5cccc(-c6ccc7c(c6)OCC(=O)N7CCc6cncc(C#N)c6)c5Cl)c4Cl)ccc32)c1` [Compound 427] to `N#Cc1cncc(CN2C(=O)COc3cc(-c4cccc(-c5cccc(-c6ccc7c(c6)OCC(=O)N7Cc6cncc(C#N)c6)c5Cl)c4Cl)ccc32)c1` [Compound 430], the IC50 rises from 68.7 nM to no less than 3000 nM. The first is the more potent here.

`O=C1CC[C@@H](CN2C(=O)COc3nc(-c4cccc(-c5cccc(-c6ccc7c(n6)OCC(=O)N7C[C@@H]6CCC(=O)N6)c5Cl)c4Cl)ccc32)N1` [Compound 457] and `O=C1CC[C@@H](CN2C(=O)COc3cc(-c4cccc(-c5cccc(-c6ccc7c(c6)OCC(=O)N7CCN6C[C@H](O)C[C@@H]6C(=O)O)c5Cl)c4Cl)ccc32)N1` [Compound 488] are within 1.5-fold of each other in IC50: 8.78 nM for the first, 6.2 nM for the second.

`CC(=O)NCCNCCN1C(=O)COc2cc(-c3cccc(-c4cccc(-c5ccc6c(c5)OCC(=O)N6CCNCCNC(C)=O)c4Cl)c3Cl)ccc21` [Compound 461] and `O=C(O)CCCCNCCN1C(=O)COc2cc(-c3cccc(-c4cccc(-c5ccc6c(c5)OCC(=O)N6CCNCCCCC(=O)O)c4Cl)c3Cl)ccc21` [Compound 490] are within 1.5-fold of each other in IC50: 4.06 nM for the first, 3.51 nM for the second.

`O=C(O)[C@@H]1C[C@H](O)CN1CCN1C(=O)COc2cc(-c3cccc(-c4cccc(-c5ccc6c(c5)OCC(=O)N6CCN5C[C@@H](O)C[C@H]5C(=O)O)c4Cl)c3Cl)ccc21` [Compound 478] and `O=C(O)[C@@H]1C[C@@H](O)CN1CCN1C(=O)COc2cc(-c3cccc(-c4cccc(-c5ccc6c(c5)OCC(=O)N6CCN5C[C@@H](O)C[C@H]5C(=O)O)c4Cl)c3Cl)ccc21` [Compound 482] are within 1.5-fold of each other in IC50: 8.76 nM for the first, 6.72 nM for the second.

`O=C(O)CNCCCN1C(=O)COc2cc(-c3cccc(-c4cccc(-c5ccc6c(c5)OCC(=O)N6CCCNCC(=O)O)c4Cl)c3Cl)ccc21` [Compound 479] and `O=C(O)CCNCCN1C(=O)COc2cc(-c3cccc(-c4cccc(-c5ccc6c(c5)OCC(=O)N6CCN5CC[C@H](O)C5)c4Cl)c3Cl)ccc21` [Compound 491] are within 1.5-fold of each other in IC50: 6.02 nM for the first, 5.22 nM for the second.

`O=C(O)[C@H]1C[C@@H](O)CN1CCN1C(=O)COc2cc(-c3cccc(-c4cccc(-c5ccc6c(c5)OCC(=O)N6CCN5C[C@H](O)C[C@@H]5C(=O)O)c4Cl)c3Cl)ccc21` [Compound 484] and `O=C(O)C1CCCCN1CCN1C(=O)COc2cc(-c3cccc(-c4cccc(-c5ccc6c(c5)OCC(=O)N6CCN5CCCCC5C(=O)O)c4Cl)c3Cl)ccc21` (stereo not shown) [Compound 513] are within 1.5-fold of each other in IC50: 6.53 nM for the first, 8.23 nM for the second.

`O=C(O)C1CCN(CCN2C(=O)COc3cc(-c4cccc(-c5cccc(-c6ccc7c(c6)OCC(=O)N7CCNCCO)c5Cl)c4Cl)ccc32)C1` (stereo not shown) [Compound 493] showed an IC50 of 5.59 nM.
